Measured values as given in article PMC12724307, “Characterization of the initial degradation mechanism involved in C-glycosylated isoflavone puerarin in soil microorganism” (Applied and Environmental Microbiology, 2025).

Test system: T1, PurA
T1 construct: ORF of 1,551 nt, pET24a(+), His-tagged, E. coli Rosetta2 (DE3), Ni-column; calculated 55,563 Da; monomer
Experiment: peroxidase-coupled H2O2 assay (DAOS/4-aminoantipyrine)
Assay type: biochemical, Paenarthrobacter sp. No. 37
Conditions: oxygen as electron acceptor; Tris-HCl pH 8.0; 28°C; apparent steady-state constants

Km: 43.4 ± 6.6 µM
Structure (SMILES): O=c1c(-c2ccc(O)cc2)coc2c([C@@H]3O[C@H](CO)[C@@H](O)[C@H](O)[C@H]3O)c(O)ccc12 [compound 1, puerarin]
